# Data from patent publication US10538512B2, “Aminoacylindazole immunomodulators for treatment of autoimmune diseases” (The Rockefeller University, priority 2016, dated 2020).
# pIC50: −log10 of the molar value.
# Target: T1, Human FXIIa (Homo sapiens, UniProt P00748)
# T1 construct: active coagulation factor XII (FXIIa); purchased Enzyme Research Labs
# T1 sequence (P00748 373-615 limits assumed): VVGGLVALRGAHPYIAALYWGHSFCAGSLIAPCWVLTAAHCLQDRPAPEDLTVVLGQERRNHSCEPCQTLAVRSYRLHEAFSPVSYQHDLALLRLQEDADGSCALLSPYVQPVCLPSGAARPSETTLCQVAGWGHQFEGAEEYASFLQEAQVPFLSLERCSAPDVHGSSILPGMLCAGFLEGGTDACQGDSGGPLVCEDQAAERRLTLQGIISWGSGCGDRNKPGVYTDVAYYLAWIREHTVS
# T1 sequence (P00748 20-372 partner limits assumed): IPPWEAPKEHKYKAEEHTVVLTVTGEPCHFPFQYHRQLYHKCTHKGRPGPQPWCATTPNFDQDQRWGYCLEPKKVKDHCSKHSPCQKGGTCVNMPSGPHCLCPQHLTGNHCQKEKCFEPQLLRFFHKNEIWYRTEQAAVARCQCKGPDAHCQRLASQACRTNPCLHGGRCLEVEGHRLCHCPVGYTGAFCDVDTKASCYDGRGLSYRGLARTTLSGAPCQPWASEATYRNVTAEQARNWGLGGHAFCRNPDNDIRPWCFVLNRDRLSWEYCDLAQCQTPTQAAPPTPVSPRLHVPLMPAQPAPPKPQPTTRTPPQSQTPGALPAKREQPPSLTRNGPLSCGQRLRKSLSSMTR
# Assay: Factor XIIa (FXIIa) inhibitory activity, chromogenic substrate assay
# Type: biochemical
# Conditions: Human FXIIa 12.5 nM, Pefachrome XIIa 400 μM, 10 min preincubation
# Experimental: Factor XIIa (FXIIa) Inhibitory Activity:
# In a 96-well clear bottom plate, 80 μl of assay buffer was added to each well. Assay buffer consists of 0.5× Hank's Balanced Salt Solution (Invitrogen), buffered with 25 mM HEPES pH 7.4 (Invitrogen) and 0.5× Tris-buffered saline with Tween-20 0.05% (Santa Cruz Biotechnology). Test compounds were first dissolved in DMSO (Sigma) and then 4 μl were added to test wells containing assay buffer. Serial dilutions using an automated multi-channel pipette were used to generate a concentration range of approximately 1-100 μM. […] 80 μl of this enzyme solution was added to the assay wells. The enzyme/compound mixtures were incubated for 10 minutes at room temperature. Chromogenic substrate (Pefachrome XIIa; Enzyme Research Labs) was added to assay wells at a final concentration of 400 μM. The assay plate was spun for 1 minute at 1500 g and then read at 37° C. in a SpectraMax M2 plate reader (λ=405 nm). Activity was quantified as the rate of change in absorbance, which corresponds to the rate of substrate cleavage.
row,SMILES,pIC50
1,"Nc1nn(C(=O)[C@H]2CCNc3ccc(F)cc32)c2c1C[C@H](O)CC2 (relative stereo) [Example 131, ((5R*)-3-amino-5-hydroxy-4,5,6,7-tetrahydro-2H-indazol-1-yl)((4S*)-6-fluoro-1,2,3,4-tetrahydroquinolin-4-yl)methanone]",< 4.05
2,"Nc1nn(C(=O)[C@@H]2CCNc3ccc(F)cc32)c2c1C[C@H](O)CC2 (relative stereo) [Example 132, ((5R*)-3-amino-5-hydroxy-4,5,6,7-tetrahydro-2H-indazol-1-yl)((4R*)-6-fluoro-1,2,3,4-tetrahydroquinolin-4-yl)methanone]",< 4.05
3,"Cc1cccc2c1NCC[C@@H]2C(=O)n1nc2c(c1N)C[C@@H](N)CC2 (relative stereo) [Example 213, ((5S*)-3,5-diamino-4,5,6,7-tetrahydroindazol-2-yl)((4S*)-8-methyl-1,2,3,4-tetrahydroquinolin-4-yl)methanone]",7.22
4,"Nc1c2c(nn1C(=O)[C@H]1CCNc3c(Cl)cccc31)CC[C@H](N)C2 (relative stereo) [Example 215, ((4S*)-8-chloro-1,2,3,4-tetrahydroquinolin-4-yl)((5S*)-3,5-diamino-4,5,6,7-tetrahydroindazol-2-yl)methanone]",7.15
5,"Nc1c2c(nn1C(=O)[C@@H]1CCNc3c(Cl)cccc31)CC[C@H](N)C2 (relative stereo) [Example 216, ((4R*)-8-chloro-1,2,3,4-tetrahydroquinolin-4-yl)((5S*)-3,5-diamino-4,5,6,7-tetrahydroindazol-2-yl)methanone]",5.52
6,"Cc1csc(C)c1C(=O)n1nc2c(c1N)CCCC2 (single isomer, unassigned) [Example 16, (3-Amino-4,5,6,7-tetrahydroindazol-2-yl)(2,4-dimethylthiophen-3-yl)methanone]",4.82
7,"CN1CCC(C(=O)n2nc3c(c2N)CCCC3)c2ccccc21 (single isomer, unassigned) [Example 25, (3-Amino-4,5,6,7-tetrahydroindazol-2-yl)(1-methyl-1,2,3,4-tetrahydroquinolin-4-yl)methanone]",6.52
8,"Nc1c2c(nn1C(=O)c1cccc3c1CC(=O)N3)CCCC2 (single isomer, unassigned) [Example 64, 4-(3-amino-4,5,6,7-tetrahydro-2H-indazole-2-carbonyl)indolin-2-one]",6.70
9,"CCc1cc2c(C(=O)n3nc4c(c3N)CCCC4)cccc2n1C (single isomer, unassigned) [Example 66, (3-amino-4,5,6,7-tetrahydroindazol-2-yl)(2-ethyl-1-methyl-1H-indol-4-yl)methanone]",8.00
10,"CN1CCC(C(=O)n2nc3c(c2N)CCCC3)c2ccccc21 (single isomer, unassigned) [Example 72, (S*)-(3-amino-4,5,6,7-tetrahydroindazol-2-yl)(1-methyl-1,2,3,4-tetrahydroquinolin-4-yl)methanone]",6.82
11,"Nc1c2c(nn1C(=O)C1CCNc3ccccc31)CCCC2 (single isomer, unassigned) [Example 78, (R*)-(3-amino-4,5,6,7-tetrahydroindazol-2-yl)(1,2,3,4-tetrahydroquinolin-4-yl)methanone]",6.82
12,"CCc1cc2c([nH]1)CCCC2C(=O)n1nc2c(c1N)CCCC2 (single isomer, unassigned) [Example 83, (S*)-(3-amino-4,5,6,7-tetrahydroindazol-2-yl)(2-ethyl-4,5,6,7-tetrahydro-1H-indol-4-yl)methanone]",7.70
13,"CCc1cc2c([nH]1)CCCC2C(=O)n1nc2c(c1N)CCCC2 (single isomer, unassigned) [Example 84, (R*)-(3-amino-4,5,6,7-tetrahydroindazol-2-yl)(2-ethyl-4,5,6,7-tetrahydro-1H-indol-4-yl)methanone]",5.48
14,"Nc1c2c(nn1C(=O)C1CCCc3[nH]ccc31)CCCC2 (single isomer, unassigned) [Example 94, (S*)-(3-amino-4,5,6,7-tetrahydroindazol-2-yl)(4,5,6,7-tetrahydro-1H-indol-4-yl)methanone]",6.60
15,"Cn1ccc2c1CCCC2C(=O)n1nc2c(c1N)CCCC2 (single isomer, unassigned) [Example 97, (S*)-(3-amino-4,5,6,7-tetrahydroindazol-2-yl)(1-methyl-4,5,6,7-tetrahydro-1H-indol-4-yl)methanone]",6.40
16,"Nc1c2c(nn1C(=O)C1CCCc3[nH]c(Cl)cc31)CCCC2 (single isomer, unassigned) [Example 106, (S*)-(3-amino-4,5,6,7-tetrahydro-2H-indazol-2-yl)(2-chloro-4,5,6,7-tetrahydro-1H-indol-4-yl)methanone]",7.40
17,"Nc1c2c(nn1C(=O)C1CCCc3[nH]c(Cl)cc31)CCCC2 (single isomer, unassigned) [Example 107, (R*)-(3-amino-4,5,6,7-tetrahydro-2H-indazol-2-yl)(2-chloro-4,5,6,7-tetrahydro-1H-indol-4-yl)methanone]",5.10
18,"Nc1c2c(nn1C(=O)C1CCCc3[nH]c(Br)cc31)CCCC2 (single isomer, unassigned) [Example 108, (S*)-(3-amino-4,5,6,7-tetrahydroindazol-2-yl)(2-bromo-4,5,6,7-tetrahydro-1H-indol-4-yl)methanone]",7.15
19,"Nc1c2c(nn1C(=O)[C@@H]1CCNc3ccc(F)cc31)CC[C@@H](O)C2 (single isomer, unassigned) [Example 130, ((5R*)-3-amino-5-hydroxy-4,5,6,7-tetrahydro-2H-indazol-2-yl)(4(R*)-6-fluoro-1,2,3,4-tetrahydroquinolin-4-yl)methanone]",4.35
20,"Nc1c2c(nn1C(=O)[C@H]1CCNc3ccc(F)cc31)CC[C@H](O)C2 (single isomer, unassigned) [Example 133, ((5S*)-3-amino-5-hydroxy-4,5,6,7-tetrahydroindazol-2-yl)((4S*)-6-fluoro-1,2,3,4-tetrahydroquinolin-4-yl)methanone]",4.48
21,"Nc1nn(C(=O)[C@H]2CCNc3ccc(F)cc32)c2c1C[C@@H](O)CC2 (single isomer, unassigned) [Example 135, ((5S*)-3-amino-5-hydroxy-4,5,6,7-tetrahydro-1H-indazol-1-yl)((4S*)-6-fluoro-1,2,3,4-tetrahydroquinolin-4-yl)methanone]",4.62
22,"Nc1nn(C(=O)[C@@H]2CCNc3ccc(F)cc32)c2c1C[C@@H](O)CC2 (single isomer, unassigned) [Example 136, ((5S*)-3-amino-5-hydroxy-4,5,6,7-tetrahydroindazol-1-yl)((4R*)-6-fluoro-1,2,3,4-tetrahydroquinolin-4-yl)methanone]",< 4.05
23,"Nc1c2c(nn1C(=O)[C@@H]1CCNc3ccc(F)cc31)CC[C@@H](F)C2 (single isomer, unassigned) [Example 138, ((5R*)-3-amino-5-fluoro-4,5,6,7-tetrahydroindazol-2-yl)((4R*)-6-fluoro-1,2,3,4-tetrahydroquinolin-4-yl)methanone]",4.80
24,"Nc1nn(C(=O)C2CCNc3ccc(F)cc32)c2c1CC(F)CC2 (single isomer, unassigned) [Example 139, ((5R*)-3-amino-5-fluoro-4,5,6,7-tetrahydroindazol-1-yl)((4RS)-6-fluoro-1,2,3,4-tetrahydroquinolin-4-yl)methanone]",4.07
